Laboratory results as given in patent US20260083751A1, “ALLOSTERIC MODULATORS OF ANDROGEN RECEPTOR COACTIVATOR RECRUITMENT FOR CRPC THERAPY” (University of Pittsburgh – Of the Commonwealth System of …, priority 2022, published 2026).
Entries after “also recorded” stand apart in the source; their conditions may differ.

How the values were obtained:
Type in all cases: cell-based
AR-LBD and TIF2 = biological target: T1, AR-LBD and TIF2 (Homo sapiens, UniProt P10275); assay: AR-TIF2 mammalian 2-hybrid assay; settings: HEK 293 cells; read-out: Inhibition DHT-induced AR-TIF2 mammalian 2 hybrid assay IC50
T1 construct: AR-LBD amino acids 658-919 expressed as a fusion protein with Gal4-DBD; expressed in transfected cells; host or cells: HEK 293, transient co-transfection
T1 sequence (P10275 658-919): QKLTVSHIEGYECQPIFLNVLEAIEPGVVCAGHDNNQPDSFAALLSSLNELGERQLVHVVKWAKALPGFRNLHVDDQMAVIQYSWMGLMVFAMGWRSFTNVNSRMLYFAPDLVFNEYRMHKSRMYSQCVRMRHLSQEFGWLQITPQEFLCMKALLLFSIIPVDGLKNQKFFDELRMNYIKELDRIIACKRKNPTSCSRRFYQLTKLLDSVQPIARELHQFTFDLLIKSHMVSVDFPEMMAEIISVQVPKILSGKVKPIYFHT
Excerpt: TIF2 and SRC1 Mammalian 2-Hybrid Assays: The 5×GAL4-TATA-luciferase reporter plasmid was a gift from Dr. Richard Maurer from the Oregon Health and Science University (Gonzalez et al., Cell 1989, 59:675-80), and constructs pGAL4-hAR-658-919 (AR-LBD amino acids 658-919 expressed as a fusion protein with Gal4-DBD) (Askew et al., J Biol Chem 2007, 282:25801-16), pVP16-SRC1 (full-length SRC1 expressed as a fusion with VP16 activation domain) (He et al., J Biol Chem 1999, 274:37219-25) and pVP16-Empty vectors were kindly provided to us by Dr. Elizabeth Wilson, from UNC Chapel Hill. pVP16-TIF2 was generated as described previously (Fancher et al., Assay Drug Dev Technol. 2019, 17:364-386). HEK 293 cells were transiently co-transfected with 5 ng of pGal4-AR-LBD, 10 ng of either pVP16-TIF2 or pVP16-SRC1, and 20 ng of the 5×Gal4-TATA-Luc reporter as described previously (Ibid.). HEK 293 cells were bulk co-transfected with the three plasmids that had been individually incubated with FuGENE® 6 transfection agent (Fugent LLC, Middleton, WI) at a 3:1 ratio for 25 min at room temperature (RT) in serum free media (SFM) and then combined with HEK 293 cells that were suspended in DMEM (Cellgro10013CV) with 2 mM L-glutamine (Invitrogen) that was supplemented with 10% fetal bovine serum, and 5,000 cells in a volume of 40 μL were seeded into the wells of white opaque 384-well assay plates (Greiner Bio-one, #781080) and cultured overnight at 37° C., 5% CO2, and 95% humidity. […] 25 μL of BrightGlo® reagent (Promega, Madison, WI) was added to the plate and the relative luminescence units (RLUs) were captured on a SpectraMax® M5e microtiter plate reader (Molecular Devices, LLC, San Jose, CA).

LNCaP cells = assay: Prostate cancer cell line growth inhibition assay, LNCaP; settings: Homo sapiens, 72 h, read-out: AR positive LnCaP GI50
Experimental: Prostate Cancer Cell Line Growth Inhibition Assays: The PC-3, DU-145, LNCaP, C4-2, and 22Rv1 PC cell line growth inhibition assays have been described previously (Fancher et al., Assay Drug Dev Technol. 2016, 14:453-477; Fancher et al., Assay Drug Dev Technol. 2019, 17:364-386). On day 1, each PC cell line was harvested, counted, and seeded into two 384-well assay plates, a time zero (T0) and a time 72 h (T72) plate. PC cell lines were all seeded at 1,000 cells per well in 45 μL of tissue culture media in uncoated white clear bottom 384-well assay plates (VWR, #82050-076) using a Matrix electronic multichannel pipette (Thermo Fisher Scientific, Waltham, MA) and cultured overnight at 37° C., 5% CO2, and 95% humidity. On day 2, 25 μL of the CellTiter-Glo® (CTG) (Promega Corporation, Madison, WI) detection reagent was dispensed into the wells of the TO assay plate using a Matrix electronic multichannel pipette, and the RLUs were captured on the SpectraMax® M5e (Molecular Devices LLC, Sunnyvale, CA) microtiter plate reader. Also on day 2, 5 μL of compounds were transferred into the test wells of the T72 384-well assay plates which were returned to the incubator for 72 h. Control wells received DMSO alone. On day 5, 25 μL of the CTG detection reagent was dispensed into the wells of the T72 assay plate using a Matrix electronic multichannel pipette, and the RLU's were captured on the SpectraMax® M5e microtiter plate reader platform.
For the 96-well AR-LBD H^3-DHT radioligand binding assay, eight minimum and maximum plate control wells were utilized to normalize the data. […] To normalize the 72 h compound exposure PC growth inhibition data, the signals from the compound treated wells were processed and expressed as % of the T72 DMSO plate controls. IC50 and GI50 values for each of the bioassays were calculated using GraphPad Prism 9 software to plot and fit data to curves using the Sigmoidal dose response variable slope equation Y=Bottom+[Top-Bottom]/[1+10^(Log EC50−X)*HillSlope].

[1] = test system: PSA expression in C4-2 cells; assay: Western blot of PSA expression in C4-2 cells; settings: C4-2 cells, hits 20 μM (enzalutamide 25 μM) 3 h, ±10 nM DHT 24 h
Experimental: Cell lysate protein concentrations were determined in a bicinchoninic acid (BCA) assay. Equal amounts of cell protein were mixed with SDS-PAGE sample buffer and placed in a heat block at 100° C. for 5 min. The protein constituents of C4-2 cells were separated by SDS-PAGE on 10% separating gels, transferred to nitrocellulose membranes and western blots were probed overnight at 4° C. with a 1:1000 dilution of a rabbit anti-hPSA (Cell Signaling, Danvers, MA) primary antibody in Tris-buffered saline (TBS) Tween 20 (TBST) containing 5% non-fat milk. Membranes were washed 3× in TBST for 10 min, then incubated for 1 h at room temperature with a 1:10,000 dilution of the goat anti-rabbit IgG horse radish peroxidase (HRP) conjugated secondary antibody (Invitrogen, Carlsbad, CA) in TBST containing 5% non-fat milk. Western blots were then washed 3× in TBST and developed with Pierce enhanced chemiluminescence (ECL) western blotting substrate (Thermo Fisher Scientific, Waltham, MA). Images of western blot ECL bands were acquired on an iBright™ 1500 imaging system (Thermo Fisher Scientific, Waltham, MA) and quantified by iBright™ image analysis software.

Cc1ccccc1-c1cc(O)c2c(c1)CN(c1nc(C(N)=O)cs1)CCO2 [Compound S1-1] was tested, and the IC50 (AR-LBD and TIF2) was 0.91 µM, the GI50 (LNCaP cells) was 24.4 µM and the “Endogenous and DHT-enhanced PSA expression” value [1] was “substantially reduced; also recorded: inhibition”.

With Cc1nsc(NC(=O)N2CCC(Sc3ccccc3C)CC2)n1 [Compound S2-6] the IC50 (AR-LBD and TIF2) was 0.05 µM, the GI50 (LNCaP cells) was 15.6 µM and the “Endogenous and DHT-enhanced PSA expression” value [1] was “substantially reduced; also recorded: inhibition”.

In the case of Cc1c(-c2ccccc2F)[nH]c2ccc(CNC(=O)CCc3cn[nH]c3)cc12 [Compound S3-11], the IC50 (AR-LBD and TIF2) is reported as 0.89 µM, the GI50 (LNCaP cells) is reported as 6.35 µM and the “Endogenous and DHT-enhanced PSA expression” value [1] is reported as “substantially reduced; also recorded: inhibition”.
